Measurements from patent publication US12600796B2, “Constructs for chimeric antigen receptors” (Carisma Therapeutics Inc., priority 2020, dated 2026).

Experiments:
[1] = test system: Human macrophages; experiment: Viability, CAR expression and M1/M2 markers of HER2 CAR mRNA-electroporated macrophages treated with interferons; type: cell-based; details: for M1 phenotype (based on CD86 expression): FIG. 121E; for M2 markers (based on CD163 expression): FIG. 121F
Experimental: Human macrophages were electroporated with HER2 CAR mRNA comprising m6AGCap1 and PsU modifications. Cells were cultured with cytokines that induce an M1 phenotype such as IFN-alpha, IFN-beta, IFN-gamma, IFN-gamma plus lipopolysaccharide (LPS), TNF-alpha, IL-6 or a STING ligand (STING-L) for up to 48 hours and then cytokines were washed off and fresh media was added. CAR expression and M1 marker expression were measured on days 2 and 7 after transfection. Fluorescent labeled HER2+ breast cancer cells (CRL2351) were co-cultured with HER2 CAR macrophages two days after the macrophages were transfected. Cancer cell growth was monitored via its fluorescence on an Incucyte® live imaging microscope every four hours. The Effector (CAR macrophage) to Target (cancer cell) ratio was 5:1.
Five different mRNA modifications were also tested to determine if interferon treatment differentially affected macrophages transfected with mRNA comprising different modifications. Human macrophages were electroporated with HER2 CAR mRNA comprising different mRNA modifications. CAR expression and M1 markers were detected by Flow Cytometry (Attune) on day four after electroporation. Day 4 CAR macrophage cells were then co-cultured with a Nuc-Light labeled, HER2+ breast cancer cell line (CRL2351) at an Effector (CAR macrophage) to Target (cancer cell) ratio of 5:1. Cancer cell growth was monitored via its fluorescence on an Incucyte® live imaging microscope every four hours.
Human macrophages were electroporated with 300 nM CAR mRNA comprising m6AGCap1 and PsU modifications. Cells were cultured with 20 ng/mL IFNs for 24 hours and then the cells were washed to remove cytokines. CAR expression was detected by Flow Cytometry (Attune) on day 2 after transfection. Cells were then co-cultured with a Nuc-Light labeled, HER2+ breast cancer cell line (CRL2351) at the Effector to Target ratio of 3:1. Cancer cell growth was monitored via its fluorescence on an Incucyte® live imaging microscope. CAR expression and M1 markers in macrophages were detected by Flow Cytometry (Attune) on day 7 after transfection.

[2] = test system: HER2+ breast cancer cells (CRL2351); experiment: Cytokine secretion of interferon-treated HER2 CAR macrophages co-cultured with cancer cells (MSD); type: cell-based, human; details: E:T 3:1, supernatant at 48 hours; FIG. 126
Experimental: Human macrophages were electroporated with 150 nM HER2 CAR mRNA comprising m6AGCap1 and PsU modifications. HER2+ breast cancer cells (CRL2351) were co-cultured with CAR macrophages after the macrophages were transfected with the CAR mRNA at an Effector (CAR macrophage) to Target (cancer cell) ratio of 3:1. Supernatant was collected 48 hours after the cancer cells and macrophages were co-cultured and cytokine levels were measured using a Meso Scale Discovery (MSD) instrument.

[3] = test system: Human macrophages; experiment: mCherry mRNA expression in transfected macrophages (Incucyte); type: cell-based; details: different doses, one day; FIG. 129
Experimental: Human macrophages were transfected with mCherry mRNA comprising m6AGCap1 and PsU or N1mPsU modifications and were then cultured for one day with different doses of IFN-γ. mCherry expression was monitored on an Incucyte® live imaging microscope.
In order to determine whether an RNaseL inhibitor could rescue IFN-γ-induced instability of transfected mRNA, human macrophages were treated with 1 μM sunitinib (an RNaseL inhibitor) two hours prior to the transfection of mCherry mRNA comprising m6AGCap1 and PsU modifications. Transfected cells were then cultured for one day with different dosages of IFN-γ. mCherry expression was monitored on an Incucyte® live imaging microscope.
The effect of another RNaseL inhibitor (RLI or ABCE1) was also tested to further validate the concept. Human macrophages were co-transfected with mRNA encoding mCherry comprising m6AGCap 1 and PsU modifications and with mRNA encoding ABCE1.

[4] = test system: CRL-2351 cells expressing nuclear GFP; experiment: Tumor killing by macrophages and Her2-Zeta CAR macrophages primed with plate-coated agonist proteins (Incucyte); type: cell-based, human; details: plate-coated protein, 3 h priming; FIGS. 5A, 6A, 7A
Experimental: (§1) To generate Her2-Zeta CAR expressing macrophages, primary human macrophages were suspended in EP buffer (MaxCyte) containing 300 nM mRNA (TriLink) at a concentration of 90×10^6 cells/mL. 100 μL of cell mixture was added to an electroporation cassette (OC100×2; MaxCyte) and electroporated using the Experimental T cell 1 setting. Cells were removed from the cassette, plated in 3 mL of TexMACS media (Miltenyi Biotech) containing 20% FBS (Gibco) on UpCell plates (Thermo Scientific), and incubated overnight at 37 C and 5% CO2.
(§2) Recombinant CD40 ligand (Peprotech), 4-1BB ligand (Enzo Life Sciences), and 4-1BB receptor (Peprotech) were resuspended in molecular grade water to a stock concentration of 100 μg/mL. Stock solution was then used to create working solutions in PBS ranging from 2-0.002 μg/mL. 100 uL of working solution was added to wells in a 96-well plate and left at room temperature for 4 h.
Plates were removed from the incubator and left at room temperature for 30 min. Cells were detached from plate, counted using the NC-200 automated cell counter (Chemomtech), and re-suspended in TexMACS media with 10% FBS. […] Cell lysis was detected using Incucyte® analysis (Essen Bioscience). Tumor cell death was calculated by integrated GFP intensity per well relative to time 0.

[5] = test system: primary human macrophages; experiment: M1/M2 surface marker expression after priming with agonist proteins (flow cytometry); type: cell-based; details: mRNA CAR macrophages, 3 days on coated wells; FIGS. 5B, 6B, 7B
Experimental: as §1, §2
For detection of cell surface proteins, macrophages were plated onto wells coated with agonist molecules in a final volume of 200 uL TexMACS media+10% FBS+10 ng/mL GM-CSF and incubated for 3 days at 37 C and 5% CO2. Cells were incubated in 300 μL Accutase (Sigma) for 30 min and transferred to 96-well round bottom plate for staining. Cells were incubated in FACS buffer containing 20 μg/mL Her2-His for 20 min at RT, followed by incubation in Human TruStain FcX for 10 min at RT. […]

IFN-α
M1 phenotype (based on CD86 expression) [1]: induction of an M1 phenotype
M2 markers (based on CD163 expression) [1]: reduction of M2 markers
secretion of IL-6, IL-8 and TNFα [2]: increased secretion of the cytokines IL-6, IL-8 and TNFα

IFN-γ: interferon cytokine that induces an M1 phenotype
M1 phenotype (based on CD86 expression) [1]: induction of an M1 phenotype
M2 markers (based on CD163 expression) [1]: reduction of M2 markers
secretion of IL-6, IL-8 and TNFα [2]: increased secretion of the cytokines IL-6, IL-8 and TNFα
mCherry mRNA expression [3]: reduced mCherry mRNA expression

B1: CD40L: Recombinant CD40 ligand (Peprotech), a CD40 agonist (protein, UniProt P29965 113-261, looked up)
CD40 ligand, soluble form: MQKGDQNPQIAAHVISEASSKTTSVLQWAEKGYYTMSNNLVTLENGKQLTVKRQGLYYIYAQVTFCSNREASSQAPFIASLCLKSPGRFERILLRAANTHSSAKPCGQQSIHLGGVFELQPGASVFVNVTDPSQVSHGTGFTSFGLLKL
tumor killing ability of macrophages and CAR macrophages [4]: significantly improved the tumor killing ability
M1 phenotype (M1 and M2 markers) [5]: induced an M1 phenotype
